From ChEMBL document CHEMBL1201862, “PubChem BioAssay data set” (2004)
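All cell lines were grown in 96-well plates and treated with compound for 48 hours. GI50: concentration for 50% inhibition of growth.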 The source made the active and inactive calls. Cut-off read from the data, not from the text of the source: active = GI50 up to about 1.1 µM and inactive = higher.

Columns and labels:
Test in all cases: NCI anticancer screen, dose series, 48 h
EKVX = test system: EKVX
PC-3 = test system: PC-3
OVCAR-8 = test system: OVCAR-8
DU-145 = test system: DU-145
OVCAR-5 = test system: OVCAR-5
A498 = test system: A498
SW-620 = test system: SW-620
OVCAR-4 = test system: OVCAR-4
RPMI-8226 = test system: RPMI-8226
HL-60 = test system: HL-60
SN12C = test system: SN12C
Hs-578T = test system: Hs-578T
MDA-MB-435 = test system: MDA-MB-435
UO-31 = test system: UO-31
ACHN = test system: ACHN
MCF7 = test system: MCF7
UACC-62 = test system: UACC-62
MDA-MB-231 = test system: MDA-MB-231
NCI-H522 = test system: NCI-H522

SMILES | GI50 (EKVX) | GI50 (PC-3) | GI50 (OVCAR-8) | GI50 (DU-145) | GI50 (OVCAR-5) | GI50 (A498) | GI50 (SW-620) | GI50 (OVCAR-4) | GI50 (RPMI-8226) | GI50 (HL-60) | GI50 (SN12C) | GI50 (Hs-578T) | GI50 (MDA-MB-435) | GI50 (UO-31) | GI50 (ACHN) | GI50 (MCF7) | GI50 (UACC-62) | GI50 (MDA-MB-231) | GI50 (NCI-H522)
COCCOCCOCCC(=O)NC1CC2CCC1(C)C2(C)C (stereo not drawn) | > 100 µM (inactive) | > 100 µM (inactive) | > 100 µM (inactive) | > 100 µM (inactive) | > 100 µM (inactive) | > 100 µM (inactive) | > 100 µM (inactive) | > 100 µM (inactive) | > 100 µM (inactive) | > 100 µM (inactive) | > 100 µM (inactive) | > 100 µM (inactive) | > 100 µM (inactive) | > 100 µM (inactive) | > 100 µM (inactive) | > 100 µM (inactive) | > 100 µM (inactive) | > 100 µM (inactive) | 
CC1(C23CC4CC(CC(C4)C2)C3)n2c(=O)n(-c3ccccc3)c(=O)n2C1(C)C12CC3CC(CC(C3)C1)C2 (stereo not drawn) | 91.2 µM (inactive) | > 100 µM (inactive) | > 100 µM (inactive) | > 100 µM (inactive) | > 100 µM (inactive) | > 100 µM (inactive) | > 100 µM (inactive) |  | 89.7 µM (inactive) | > 100 µM (inactive) | > 100 µM (inactive) | 18.8 µM (inactive) | > 100 µM (inactive) | > 100 µM (inactive) | > 100 µM (inactive) | > 100 µM (inactive) | > 100 µM (inactive) | > 100 µM (inactive) | 
S=C(c1c[nH]c2ccccc12)N1CCCCC1 | 85.9 µM (inactive) | 49.8 µM (inactive) | > 100 µM (inactive) | > 100 µM (inactive) | > 100 µM (inactive) | > 100 µM (inactive) | > 100 µM (inactive) |  | 36.9 µM (inactive) | 70.6 µM (inactive) | > 100 µM (inactive) | > 100 µM (inactive) | 85.5 µM (inactive) |  | > 100 µM (inactive) | 84.1 µM (inactive) | > 100 µM (inactive) | > 100 µM (inactive) | 
Oc1ccc(Cl)cc1-c1cc(-c2ccccc2)nc(S)n1 | 4.52 µM (inactive) | > 100 µM (inactive) | > 100 µM (inactive) | > 100 µM (inactive) | > 100 µM (inactive) | 41.6 µM (inactive) | > 100 µM (inactive) | > 100 µM (inactive) | > 100 µM (inactive) | > 100 µM (inactive) | 93.1 µM (inactive) | 29.2 µM (inactive) | > 100 µM (inactive) | 24 µM (inactive) | 30.3 µM (inactive) | > 100 µM (inactive) |  | 30.5 µM (inactive) | > 100 µM (inactive)
Cc1cn(C2CC(n3cc(Cn4cc(Br)c(=O)[nH]c4=O)nn3)C(CO)O2)c(=O)[nH]c1=O (stereo not drawn) | > 100 µM (inactive) | > 100 µM (inactive) | 13 µM (inactive) | > 100 µM (inactive) | > 100 µM (inactive) | > 100 µM (inactive) | > 100 µM (inactive) | > 100 µM (inactive) | 52.6 µM (inactive) | 0.0395 µM (active) | > 100 µM (inactive) | > 100 µM (inactive) | 42.1 µM (inactive) | 88.1 µM (inactive) | > 100 µM (inactive) | > 100 µM (inactive) | > 100 µM (inactive) | > 100 µM (inactive) | 
C/C(Cc1ccc2c(c1)OCO2)=N\NC(=O)C(C)Sc1nnc(SC(C)C(=O)N/N=C(\C)Cc2ccc3c(c2)OCO3)s1 (stereo not drawn) | 81.3 µM (inactive) | > 100 µM (inactive) | > 100 µM (inactive) | > 100 µM (inactive) | > 100 µM (inactive) | 62.4 µM (inactive) | > 100 µM (inactive) | > 100 µM (inactive) | 37.6 µM (inactive) | > 100 µM (inactive) |  | > 100 µM (inactive) | > 100 µM (inactive) | > 100 µM (inactive) | > 100 µM (inactive) | 24.1 µM (inactive) | > 100 µM (inactive) | 84.7 µM (inactive) | 
C/C(=C1/N=C(c2ccccc2)OC1=O)c1ccc(C)cc1 | > 100 µM (inactive) | > 100 µM (inactive) | > 100 µM (inactive) | > 100 µM (inactive) | > 100 µM (inactive) | > 100 µM (inactive) | > 100 µM (inactive) | > 100 µM (inactive) | 74.1 µM (inactive) | 45.3 µM (inactive) | > 100 µM (inactive) | > 100 µM (inactive) | > 100 µM (inactive) |  | > 100 µM (inactive) | > 100 µM (inactive) | > 100 µM (inactive) | > 100 µM (inactive) | > 100 µM (inactive)
COC(=O)c1cc(C)n(CN(Cc2ccccc2)Cn2nc(C(=O)OC)cc2C)n1 | 66.5 µM (inactive) | > 65.5 µM (inactive) | > 84.1 µM (inactive) | > 62.1 µM (inactive) | > 82.2 µM (inactive) | > 100 µM (inactive) | > 46.9 µM (inactive) | > 64.1 µM (inactive) | > 41 µM (inactive) |  | > 100 µM (inactive) | > 100 µM (inactive) | > 100 µM (inactive) | > 46.1 µM (inactive) | > 43.1 µM (inactive) | > 66.5 µM (inactive) | > 31.9 µM (inactive) | > 100 µM (inactive) | > 100 µM (inactive)
Cc1ccc(C)c(COCCOCn2cc(N3CCOCC3)c(=O)[nH]c2=O)c1 | > 100 µM (inactive) | > 100 µM (inactive) | > 100 µM (inactive) | > 100 µM (inactive) | > 100 µM (inactive) | > 100 µM (inactive) | > 100 µM (inactive) |  |  | 3.63 µM (inactive) | > 100 µM (inactive) | 54.6 µM (inactive) | > 100 µM (inactive) | > 100 µM (inactive) | > 100 µM (inactive) | > 100 µM (inactive) | > 100 µM (inactive) | > 100 µM (inactive) | > 100 µM (inactive)
COC(=O)c1c(O)ccc2c1c1c(n2Cc2ccc(Cl)cc2Cl)C(=O)c2ccccc2C1 |  | 24.1 µM (inactive) | 37.8 µM (inactive) | > 100 µM (inactive) |  | > 100 µM (inactive) | 57 µM (inactive) | 27.1 µM (inactive) | 19.7 µM (inactive) | > 100 µM (inactive) | 23.1 µM (inactive) | 93.8 µM (inactive) | 45.1 µM (inactive) | 97.9 µM (inactive) |  | 26.8 µM (inactive) | > 100 µM (inactive) | 69.7 µM (inactive) | 
NS(=O)(=O)c1ccc(NCc2cccc3c(=O)c4ccc(Cl)cc4oc23)cc1 | > 33.8 µM (inactive) | 31 µM (inactive) | 24.2 µM (inactive) | 30.3 µM (inactive) | > 100 µM (inactive) | > 75.3 µM (inactive) | 6.38 µM (inactive) | > 95.9 µM (inactive) | 24 µM (inactive) | 3.68 µM (inactive) | > 56.6 µM (inactive) | 20 µM (inactive) | 19.7 µM (inactive) | 25.5 µM (inactive) | 28.4 µM (inactive) | 8.34 µM (inactive) | 23.1 µM (inactive) | 52 µM (inactive) | > 39.2 µM (inactive)
COc1ccc2nc3n(c2c1)C(c1c(F)cccc1F)SC3 (stereo not drawn) | 18.9 µM (inactive) | 29.7 µM (inactive) | 36.6 µM (inactive) | 42.3 µM (inactive) | > 100 µM (inactive) | 95.3 µM (inactive) | 64.6 µM (inactive) | 64.4 µM (inactive) | 29.9 µM (inactive) | 23.3 µM (inactive) | > 100 µM (inactive) | 22.3 µM (inactive) | 39.1 µM (inactive) | 51.9 µM (inactive) | 34 µM (inactive) | 32 µM (inactive) | 56.9 µM (inactive) | > 100 µM (inactive) | 
Clc1cc(Cl)cc(C2ON=C(c3ccccc3)N2C23CC4CC(CC(C4)C2)C3)c1 (stereo not drawn) | > 10 µM (inactive) | > 10 µM (inactive) | > 10 µM (inactive) | > 10 µM (inactive) | > 10 µM (inactive) | > 10 µM (inactive) | > 10 µM (inactive) | > 10 µM (inactive) | > 10 µM (inactive) |  | > 10 µM (inactive) | > 10 µM (inactive) | > 10 µM (inactive) | > 10 µM (inactive) | > 10 µM (inactive) | > 10 µM (inactive) | > 10 µM (inactive) | > 10 µM (inactive) | > 10 µM (inactive)
CCC(CCCC[C@H]1CC[C@@H]2CC(=O)C[C@H]12)OC (stereo partly drawn) | 59 µM (inactive) | > 100 µM (inactive) | > 100 µM (inactive) | > 100 µM (inactive) | > 100 µM (inactive) | > 100 µM (inactive) | > 100 µM (inactive) | > 100 µM (inactive) | > 100 µM (inactive) | 39.5 µM (inactive) | > 100 µM (inactive) | > 100 µM (inactive) | > 100 µM (inactive) |  | > 100 µM (inactive) | > 100 µM (inactive) | 76 µM (inactive) | > 100 µM (inactive) | > 100 µM (inactive)
CCCCC[C@@H]1OCO[C@@]2(C)/C=C(C)\C=C/C(=O)O[C@H]([C@@H](C)[C@@H](O)[C@H](C)[C@@]3(O)C[C@@H](O[C@H]4C[C@@H](O)[C@H](O)[C@@H](C)O4)[C@H](C)[C@@H](C)O3)[C@@H](OC)/C=C\C=C(\C)C[C@@H]1[C@@H]2O (stereo in doubt) | < 0.005 µM (active) | < 0.005 µM (active) | < 0.005 µM (active) | < 0.005 µM (active) | < 0.005 µM (active) | < 0.005 µM (active) | < 0.005 µM (active) | < 0.005 µM (active) | < 0.005 µM (active) | < 0.005 µM (active) | 0.0231 µM (active) | 1.2 µM (inactive) | < 0.005 µM (active) |  | < 0.005 µM (active) | < 0.005 µM (active) | < 0.005 µM (active) | 0.0239 µM (active) | < 0.005 µM (active)
